Measured values reported in patent US12467038B2, “Methods of culturing human pluripotent cells” (Hadasit Medical Research Services and Development Ltd., priority 2019, dated 2025).

Assays:
Assay type in all cases: cell-based, human
LN-hPSCs [1] = assay: Signaling pathways analysis, Real-Time PCR of marker expression
Protocol: (§1) Signaling pathways analysis—hPSCs were cultured on LN111 for 2 days in complete medium, and then for additional 3-5 days in a medium+/−FGF2 in the presence of the following small molecules: PD032590 1 μM (Peprotech), LY294002 10 μM, SB431542 10 μM, CHIR99021 3 μM (all from Cayman Chemical, Michigan, USA), XAV939 2.5 μM (Peprotech), BMP4 50 ng/ml (Biogems-Peprotech).
(§2) Real Time PCR analysis—A relative gene expression quantitation assay was performed by amplification of 50 ng cDNA by Real Time PCR, using ABI Prism 7900HT Sequence Detection System (Applied Biosystems (ABI), Foster City, Calif.), specific TaqMan® Gene Expression Assays and TaqMan Fast Universal PCR master Mix. Human β-glucuronidase (gusB) or human β-actin (actB) were used as endogenous gene references. Data was analyzed using the RQ Manager Software v1.2 (ABI). For global expression analysis of pluripotency and differentiation associated genes, 200 ng cDNA were subjected to Real Time PCR amplification using Applied Biosystems® TaqMan® Human Stem Cell Pluripotency Array (Cat. No. 4385344), and Taqman Gene Expression Master Mix. Array data was analyzed using the DataAssist Software v2.0 (ABI).
as §1, with “analysis-hPSCs” for “analysis—hPSCs”
as §2, with “of 25-50” for “of 50”, “by Real-Time” for “by Real Time”, “and TaqMan®” for “and TaqMan”, “PCR Master Mix (All from Invitrogen).” for “PCR master Mix.”, “to Real-time” for “to Real Time”

LN-hPSCs [2] = assay: Signaling pathways analysis, phase-contrast colony morphology
Protocol: as §1
as §1, with “analysis-hPSCs” for “analysis—hPSCs”

LN-hPSCs [3] = assay: Immunofluorescence staining after WNT activation; conditions: upon WNT activation with CHIR
Protocol: as §1
Immunofluorescence staining: 4-6 day hESC colonies were fixed with 4% paraformaldehyde for 20 min at RT, permeabilized and blocked with 0.2% Triton X100 (Sigma-Aldrich), 5% normal goat/donkey serum (Biological industries, Beit Haemek, Israel) in PBS for 45 min, and incubated 1 hour at RT with the following primary antibodies: mouse IgG2b anti-human Oct4 (1:50; Cat. No. SC5279, Santa Cruz Biotechnology Inc., USA), goat polyclonal IgG anti-human FGF5 (1:250; Cat. No. AF-237-NA, R&D Systems, Minneapolis, Minn., USA), Rabbit polyclonal IgG anti-GFP (1:250; Cat. No. A11122, Invitrogen), goat polyclonal IgG anti-Brachyury (1:150; Cat. No. AF-2085, R&D Systems), and goat polyclonal IgG anti-human OTX2 (1:50; Cat. No. AF-1979, R&D Systems). […]

LN-hPSCs [4] = assay: FACS analysis of pluripotency cell-surface markers; conditions: basic medium supplemented with FGF2, XAV939 2.5 μM
Protocol: Signaling pathways analysis—hPSCs were cultured on LN111 for 2 days in complete medium, and then for additional 3-5 days in a medium+/−FGF2 in the presence of the following small molecules: PD032590 1 μM (Peprotech), LY294002 10 μM, SB431542 10 μM, CHIR99021 3 μM (all from Cayman Chemical, Michigan, USA), XAV939 2.5 μM (Peprotech), BMP4 50 ng/ml (Biogems-Peprotech). FACS analysis—FACS analyses were performed using the following primary antibodies: mouse IgM anti-TRA-1-60 (1:100; mab4360, R&D), and mouse IgM anti-TRA-1-81 (1:100; mab4381, R&D), and Rat IgM anti-SSEA-3. Staining with respective isotype control antibodies (all from eBiosciences) served as controls. Detection of primary antibodies was performed using the following secondary antibodies: FITC-conjugated Polyclonal Goat Anti-Mouse Immunoglobulins (1:100; Dako, Glostrup, Denmark), APC-conjugated Goat anti-Mouse IgM/G (1:200; Cat. No. 1020-11, SouthernBiotech, Birmingham, Ala., USA), and APC-conjugated anti-Rat (1:200; eBioscience). FACS analysis was performed on a FACScalibur system (Becton-Dickinson, San Jose, Calif.) using the Cellquest software. A detailed FACS procedure is described elsewhere. FACS analysis—FACS analyses for pluripotency marker expression were performed using mouse anti-TRA-1-60 (1:100; mab4360, R&D), and mouse anti-TRA-1-81 (1:100; mab4381, R&D). […]

hPSCs = assay: Undifferentiated propagation and PGC differentiation of hPSCs on laminin; conditions: HES-1 hPSCs
Protocol: LN-hPSCs were cultured on mouse LN111, 3-D Culture Matrix Laminin I (CULTREX, TREVIGEN, #3446-005-01, Gaithersburg, Md., USA). 0.175 ml diluted LN111 (1:14 to a coating concentration of 0.43 mg/ml) was used to coat a well of a 6-well culture dish, leaving a margin of 2-3 mm at the well edge (a final concentration of ˜8 microgram/cm^2). The coated dishes were incubated from 4 hours to 4 days, at 37° C., and washed with PBS before use. LN-hPSCs were cultured in a medium composed of DMEM/F12, B27 supplement (1:50), N2 supplement (1:100), 2 mM L-glutamine, 50 units/ml penicillin, 50 μg/ml streptomycin (all from Invitrogen), and supplemented daily with 20 ng/ml FGF2 (Peprotech). Cells were passaged every 5-6 days using 1.5 mg/ml collagenase type IV (Invitrogen). 5 μM ROCK inhibitor (Y-27632, Peprotech) was added for the first day after passaging.
hPSCs were cultured on human recombinant LN521 (BIOLAMINA, Sundbyberg, Sweden). Coating of culture dishes with hrLN521 was performed according to the manufacturer's instructions (Coating concentration ˜0.45 microgram/cm^2). Cells were cultured in the same medium used for culturing LN-hPSCs, and passaged with collagenase type IV.
PGC differentiation of hPSCs in suspension—LN-hPSCs and hPSCs cultured on hrLN-521 were dissociated into a single-cell suspension using TrypLE Select Enzyme (Invitrogen). Primed hPSCs were first dissociated from the MEF feeders by treatment with collagenase type IV, followed by dissociation into single cells by TrypLE Select Enzyme. 2000-3000 cells were seeded into a microwell of AggreWell™800 24-well plate (STEMCELL Technologies), and cultured as EBs in suspension, in PGCLC differentiation medium as described elsewhere (Irie et al., 2015).

[5] = medium depleted for FGF2, in the presence of the inhibitor, five days

Cc1c[nH]c(-c2cnc(NCCNc3ccc(C#N)cn3)nc2-c2ccc(Cl)cc2Cl)n1 [CHIR, CHIR99021]
expression of PS and mesendodermal markers T, SOX17, and GSC (LN-hPSCs [1]; 3 days in the presence of CHIR): up-regulation | expression of core pluripotency TFs Oct4, Nanog and SOX2 as well as OTX2 (LN-hPSCs [1]; 3 days in the presence of CHIR): down-regulation | expression of early ecdodermal marker PAX6 (LN-hPSCs [1]; 3 days in the presence of CHIR): down-regulated | LN-hPSC colony morphology (LN-hPSCs [2]; 3 days in the presence of CHIR): appeared differentiated | T-positive cells (immunostaining) (LN-hPSCs [3]): expressed in the majority of the cells

O=C(NOC[C@H](O)CO)c1ccc(F)c(F)c1Nc1ccc(I)cc1F [PD032590]
Oct4 and Nanog expression levels (LN-hPSCs [1]; [5]): significant down-regulation | differentiation as evidenced by changes in cell morphology (LN-hPSCs [2]; [5]): Differentiation was observed

NC(=O)c1ccc(-c2nc(-c3ccc4c(c3)OCO4)c(-c3ccccn3)[nH]2)cc1 [SB431542]
Oct4 and Nanog expression levels (LN-hPSCs [1]; FGF2 depleted from the medium): strongly reduced | Nanog expression (LN-hPSCs [1]; medium containing FGF2, 5 d): drastically reduced | Oct4 levels (LN-hPSCs [1]; medium containing FGF2, 5 d): moderately down-regulated | colony morphology (LN-hPSCs [2]; FGF2 depleted from the medium): the colonies including the margins differentiated | colony morphology (LN-hPSCs [2]; medium containing FGF2, 5 d): appeared differentiated

Oc1nc(-c2ccc(C(F)(F)F)cc2)nc2c1CSCC2 [XAV939]
LN-hPSC colonies morphology (LN-hPSCs [2]; basic medium supplemented with FGF2, XAV939 2.5 μM): did not affect | percentages of cells expressing TRA-1-60 (LN-hPSCs [4]): did not affect

BMP4: BMP4 50 ng/ml (Biogems-Peprotech), conserved role in germ cell specification
expression of early PGC TFs PRDM1 (BLIMP1) and TFAP2C (LN-hPSCs [1]; BMP4 treatment): induced the expression | expression of formative pluripotency TFs OTX2 and FOXD3 (LN-hPSCs [1]; BMP4 treatment): down-regulation

hrLN521: human recombinant LN521 (BIOLAMINA), coating of culture dishes
competence to initiate germ cell specification (hPSCs): competent to initiate germ cell specification | undifferentiated propagation of hPSCs expressing markers of pluripotency and early post-implantation epiblast (hPSCs): supports the undifferentiated propagation
